Results as given in PubChem BioAssay AID1205 (EPA DSSTox, 2008).
Activity calls are given as the source filed them.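 How the source made its calls: active means tumour findings in long-term animal cancer tests in more than one sex, species or organ; inactive means no tumour finding and more than one negative test.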

Assay: DSSTox (CPDBAS) Carcinogenic Potency Database Summary MultiCellCall Results
Conditions: animal carcinogenicity bioassays, multi-cell call summary
How it was run: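 ActivityScore sums 50 for multispecies, 30 for multisex and 20 for multisite positivity. Based on the most positive experiment per sex-species across standardised chronic rodent and other animal cancer tests.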
With `C/C(=C(\CCOC(=O)c1ccccc1)SC(=O)c1ccccc1)N(C=O)Cc1cnc(C)nc1N` the outcome was “inactive; multisex inactive”. For `c1ccc2cc(Nc3ccc(Nc4ccc5ccccc5c4)cc3)ccc2c1`, the outcome was “inactive; multisex inactive”. In the case of `O=Cc1ccccc1`, the outcome is reported as “active; multisex active”. In the case of `CN(CCCO)N=O`, the outcome is reported as “active; multisite active; multisex active”. In the case of `O=NN1CCOC1=O`, the outcome is reported as “active; multisite active”. In the case of `ClC(Cl)(Cl)c1ccccc1`, the outcome is reported as “active; multisite active”. With `c1ccc(NNc2ccccc2)cc1` the outcome was “active; multisite active; multisex active; multispecies active”. For `CC[C@H]1OC(=O)[C@H](C)[C@@H](O[C@H]2C[C@@](C)(OC)[C@@H](O)[C@H](C)O2)[C@H](C)[C@@H](O[C@@H]2O[C@H](C)C[C@H](N(C)C)[C@H]2O)[C@](C)(O)C[C@@H](C)C(=O)[C@H](C)[C@@H](O)[C@]1(C)O`, the outcome was “inactive; multisex inactive; multispecies inactive”. With `Nc1nc(N)c2nc(-c3ccccc3)c(N)nc2n1` the outcome was “active; multisex active”. In the case of `O=NN1CCC[C@H]1C(=O)O`, the outcome is reported as “inactive; multisex inactive”. In the case of `c1ccc2c(c1)Oc1ccccc1O2`, the outcome is reported as “inactive; multisex inactive; multispecies inactive”. In the case of `CC(C)CCC[C@@H](C)[C@H]1CC[C@H]2[C@@H]3CC=C4C[C@@H](OC(=O)Cc5ccc(N(CCCl)CCCl)cc5)CC[C@]4(C)[C@H]3CC[C@]12C`, the outcome is reported as “active; multisite active; multisex active; multispecies active”. With `ClCOCCl` the outcome was “active; multisite active; multisex active; multispecies active”. For `CN(C)C(=S)S[Se](SC(=S)N(C)C)(SC(=S)N(C)C)SC(=S)N(C)C`, the outcome was “inactive; multisex inactive”. For `C[C@]12CCC(=O)C=C1CC[C@@H]1[C@@H]2[C@@H](O)C[C@@]2(C)[C@H]1CC[C@]2(O)C(=O)CO`, the outcome was “inactive; multisex inactive”. With `Cn1c(=O)c2[nH]cnc2n(C)c1=O` the outcome was “inactive; multisex inactive; multispecies inactive”. For `Clc1ccc2c(c1)C(c1ccccc1)=NCc1nncn1-2`, the outcome was “inactive; multisex inactive; multispecies inactive”. With `CN(C)c1ccc(Cc2ccc(N(C)C)cc2)cc1` the outcome was “active; multisite active; multisex active; multispecies active”. For `CCCC/C=N/N(C)C=O`, the outcome was “active; multisite active; multisex active”. For `O=NN1CCCCC1C(=O)O` (configuration not stated), the outcome was “inactive; multisex inactive”. With `OC[C@@H](O)[C@@H](O)[C@H](O)[C@H](O)CO` the outcome was “inactive; multisex inactive; multispecies inactive”. In the case of `CC(C)(Oc1ccc(C2CCCc3ccccc32)cc1)C(=O)O` (configuration not stated), the outcome is reported as “active; multisite active; multisex active”. In the case of `CCCCC(CC)COC(=O)c1ccccc1C(=O)OCC(CC)CCCC` (configuration not stated), the outcome is reported as “active; multisex active; multispecies active”. With `CN(N=O)c1ncnc2c1ncn2[C@@H]1O[C@H](CO)[C@@H](O)[C@H]1O` the outcome was “active; multisite active; multisex active”. In the case of `FC(F)(F)CCl`, the outcome is reported as “active; multisite active; multisex active”. For `CN(C)C(=O)Nc1ccc(Cl)c(Cl)c1`, the outcome was “inactive; multisex inactive”. In the case of `Cc1ncc[nH]1`, the outcome is reported as “active; multisite active; multisex active; multispecies active”. In the case of `c1ccc(Nc2ccc3ccccc3c2)cc1`, the outcome is reported as “inactive; multisex inactive; multispecies inactive”. For `COc1cc2c(c3c1c(=O)c1ccccc1n3C)C=CC(C)(C)O2`, the outcome was “active; multisite active; multisex active”. With `COc1ccccc1N` the outcome was “active; multisite active; multisex active; multispecies active”. With `Cc1cc(C)c(N=Nc2c(O)c(S(=O)(=O)O)cc3cc(S(=O)(=O)O)ccc23)cc1C` the outcome was “active; multisex active”. With `O=S1OCC2C(CO1)C1(Cl)C(Cl)=C(Cl)C2(Cl)C1(Cl)Cl` (configuration not stated) the outcome was “inactive; multisex inactive; multispecies inactive”. With `COc1ccc(C(c2ccc(OC)cc2)C(Cl)(Cl)Cl)cc1` the outcome was “inactive; multisex inactive; multispecies inactive”. For `Cc1c(-c2cnccn2)ssc1=S`, the outcome was “inactive; multisex inactive”. In the case of `CC(C)(CCCOc1ccc(OCCCC(C)(C)C(=O)O)c(-c2ccccc2)c1)C(=O)O`, the outcome is reported as “active; multisex active”. For `CCOC(=O)[C@]1(c2ccccc2)CCC=C[C@H]1N(C)C`, the outcome was “inactive; multisex inactive; multispecies inactive”. In the case of `ClC1=C(Cl)[C@@]2(Cl)[C@@H]3[C@@H](Cl)[C@H](Cl)C[C@@H]3C1(Cl)C2(Cl)Cl`, the outcome is reported as “active; multisex active”. With `CN1C(=O)CN=C(c2ccccc2)c2cc(Cl)ccc21` the outcome was “inactive; multisex inactive; multispecies inactive”. In the case of `CN(CC(O)CO)N=O` (configuration not stated), the outcome is reported as “active; multisite active; multispecies active”. With `C=CF` the outcome was “active; multisite active; multisex active; multispecies active”. With `CN(C)[C@@H]1C(=O)C(C(N)=O)=C(O)[C@@]2(O)C(=O)C3=C(O)c4c(O)cccc4[C@@](C)(O)[C@H]3C[C@@H]12` the outcome was “inactive; multisex inactive; multispecies inactive”. In the case of `ClC(Cl)=C(c1ccc(Cl)cc1)c1ccc(Cl)cc1`, the outcome is reported as “active; multisex active; multispecies active”. For `ClCCl`, the outcome was “active; multisite active; multisex active; multispecies active”. For `CCC[CH2][Sn]([CH2]CCC)([O]C(C)=O)[O]C(C)=O`, the outcome was “inactive; multisex inactive; multispecies inactive”. In the case of `CC1=C(C(=O)OCCN(Cc2ccccc2)c2ccccc2)C(c2cccc([N+](=O)[O-])c2)C(P2(=O)OCC(C)(C)CO2)=C(C)N1` (configuration not stated), the outcome is reported as “inactive; multisex inactive; multispecies inactive”. With `OC[C@H]1O[C@H](O[C@]2(CCl)O[C@H](CCl)[C@@H](O)[C@@H]2O)[C@H](O)[C@@H](O)[C@H]1Cl` the outcome was “inactive; multisex inactive”. With `O=[N+]([O-])/C=C/c1ccccc1` the outcome was “inactive; multisex inactive; multispecies inactive”. For `COC(=O)C1=C(C)NC(C)=C(C(=O)OCCN2CCN(C(c3ccccc3)c3ccccc3)CC2)C1c1cccc([N+](=O)[O-])c1` (configuration not stated), the outcome was “inactive; multisex inactive; multispecies inactive”. In the case of `CN(C)C(=S)[S][Pb][S]C(=S)N(C)C`, the outcome is reported as “inactive; multisex inactive; multispecies inactive”. With `COc1cc(-c2ccc(N=C=O)c(OC)c2)ccc1N=C=O` the outcome was “active; multisite active; multisex active”. With `CC(=O)Nc1ccc2c(c1)C(=O)c1ccccc1-2` the outcome was “active; multisite active”. In the case of `Nc1ccc(Cl)c(N)c1`, the outcome is reported as “active; multisite active; multisex active; multispecies active”. With `C=CC(=O)NCO` the outcome was “active; multisite active; multisex active”. With `C=CCO` the outcome was “inactive; multisex inactive”. In the case of `C=C1C[C@@]23CC[C@H]4[C@@](C)(CCC[C@@]4(C)C(=O)O[C@@H]4O[C@H](CO)[C@@H](O)[C@H](O)[C@H]4O)[C@@H]2CC[C@]1(O[C@@H]1O[C@H](CO)[C@@H](O)[C@H](O)[C@H]1O[C@@H]1O[C@H](CO)[C@@H](O)[C@H](O)[C@H]1O)C3`, the outcome is reported as “inactive; multisex inactive”. In the case of `O=[N+]([O-])c1ccc2ccc3cccc4ccc1c2c34`, the outcome is reported as “active; multisite active”. With `Cn1cc(C(=O)[C@@H]2CCc3nc[nH]c3C2)c2ccccc21` the outcome was “inactive; multisex inactive; multispecies inactive”. With `CCN(N)C=O` the outcome was “active; multisite active; multisex active”. In the case of `CC(N)=O`, the outcome is reported as “active; multisite active; multisex active; multispecies active”. For `CCOP(=S)(OCC)Oc1ccc([N+](=O)[O-])cc1`, the outcome was “inactive; multisex inactive; multispecies inactive”. In the case of `CCN(CC)CC#CC(C)(C)OC(=O)C(O)(c1ccccc1)C1CCCCC1` (configuration not stated), the outcome is reported as “inactive; multisex inactive; multispecies inactive”. With `O=NN1CCCCCCC1` the outcome was “active; multisite active”. With `ClC1C2(Cl)C3C4C5OC5C5C4C1(Cl)C(Cl)(C53)C2(Cl)Cl` (configuration not stated) the outcome was “inactive; multisex inactive; multispecies inactive”. In the case of `Cc1ccccc1OCC(O)CNCCn1cc(C)c(=O)[nH]c1=O` (configuration not stated), the outcome is reported as “inactive; multisex inactive”. With `CCC[N+](=O)[O-]` the outcome was “inactive; multisex inactive”. With `O=[N+]([O-])c1cccc2cccnc12` the outcome was “active; multisex active”. In the case of `NC(=O)NC1NC(=O)NC1=O` (configuration not stated), the outcome is reported as “inactive; multisex inactive”. For `C=Cc1ccc(C)cc1`, the outcome was “inactive; multisex inactive”. For `COc1cc2c(cc1N)oc1ccccc12`, the outcome was “active; multisite active; multisex active”. In the case of `CC(C)COC(=O)c1ccc(O)cc1`, the outcome is reported as “inactive; multisex inactive”. For `CC(=O)NNc1ccc(CO)cc1`, the outcome was “active; multisite active; multisex active”. For `O=S(=O)(O)c1c(N=Nc2c(O)ccc3ccccc23)ccc2ccccc12`, the outcome was “inactive; multisex inactive”. For `C=C(C)[C@H]1Cc2c(ccc3c2O[C@@H]2COc4cc(OC)c(OC)cc4[C@@H]2C3=O)O1`, the outcome was “inactive; multisex inactive; multispecies inactive”. For `COc1ccc(CN(CCN(C)C)c2ccccn2)cc1`, the outcome was “active; multisex active”. With `Cc1noc(NS(=O)(=O)c2ccc(N)cc2)c1C` the outcome was “inactive; multisex inactive; multispecies inactive”. With `COc1ccc2nc(S(=O)Cc3ncc(C)c(OC)c3C)[nH]c2c1` (configuration not stated) the outcome was “active; multisex active”. For `O=C(O)Cc1cccc2ccccc12`, the outcome was “inactive; multisex inactive”. For `Oc1ccc(Cl)cc1Cl`, the outcome was “inactive; multisex inactive; multispecies inactive”. With `CCOC(=O)N(CC)N=O` the outcome was “active; multisite active”. For `N#Cc1ccc(C2CCCc3cncn32)cc1` (configuration not stated), the outcome was “inactive; multisex inactive”. With `CC(C)CCCCCCOC(=O)c1ccccc1C(=O)OCCCCCCC(C)C` the outcome was “active; multisite active; multisex active; multispecies active”. In the case of `CCOC(N)=O`, the outcome is reported as “active; multisite active; multisex active; multispecies active”. For `CC(=O)CN(CCO)N=O`, the outcome was “active; multisite active; multispecies active”. In the case of `O=c1ccc(=O)[nH][nH]1`, the outcome is reported as “inactive; multisex inactive; multispecies inactive”. With `CCC1(c2ccccc2)C(=O)NCNC1=O` the outcome was “active; multisite active; multisex active”. For `CCO`, the outcome was “active; multisite active”. In the case of `O=NN1CC=CCC1`, the outcome is reported as “active; multisite active”. In the case of `COc1ccc(C(=O)Nc2c(Cl)cncc2Cl)cc1OC1CCCC1`, the outcome is reported as “active; multisex active”. With `O=[As]O` the outcome was “inactive; multispecies inactive”. With `NNc1ccccc1` the outcome was “active; multisex active”. For `O=C(Nc1ccc2c(c1)Cc1ccccc1-2)C(F)(F)F`, the outcome was “active; multisite active”. For `O=[N+]([O-])c1ccc(Cl)cc1`, the outcome was “active; multisite active; multisex active”.
